One assay relates to NMuMG cells. In words: Mitochondrial membrane potential assay (JC-1) after X-ray irradiation. It counts as cell-based, mouse. The note with it: 15 μM, 2 h pretreatment, X-ray 10 Gy, 48 hours, mean ± SEM. The source says: (§1) Four groups of BNL CL.2 cells (i.e., a normal control group referred to as Normal Control Group 1-A, an X-ray control group referred to as X-Ray Control Group 1-A, and two experimental groups referred to as Experimental Groups 1-A to 2-A), and six groups of NMuMG cells (i.e., a normal control group referred to as Normal Control Group 1-B, an X-ray control group referred to as X-Ray Control Group 1-B, two isorhamnetin groups referred to as Isorhamnetin Groups 1 to 2, and two experimental groups referred to as Experimental Groups 1-B to 2-B), were prepared based on the procedure set forth in “Source and cultivation of cell lines” of “Experimental materials”. BNL CL.2 cells in each group were cultivated using 5 mL of a corresponding medium shown in Table 1 and a 6-cm Petri dish in an amount of 2×10^5 cells per dish. Likewise, NMuMG cells in each group were cultivated using 5 mL of a corresponding medium shown in Table 1 and a 6-cm Petri dish in an amount of 2.5×10^5 cells per dish. The cultivation was conducted in an incubator (37° C., 5% CO2) for 24 hours. […]
(§2) 1 mL of trypsin-EDTA was added so as to detach the cells from the bottom of the Petri dish. […] Mitochondrial membrane potential assay was conducted using BD Accuri™ C6 flow cytometry, and the percentage of mitochondrial membrane potential depolarization (%) was calculated using BD Accuri™ C6 software.

Another assay concerns BNL CL.2 cells. Described as above. It counts as cell-based, mouse. The note with it: 5 μM, 2 h pretreatment, X-ray 15 Gy, 120 hours, mean ± SEM.
Description: as §1, §2

This is an account of results in US9821002B2, “Method for alleviating radiation injury with isorhamnetin-3-O-β-D-glucoside” (Sinotai Oncology Associate., Ltd., priority 2015, dated 2017).

Turning to `COc1cc(-c2oc3cc(O)cc(O)c3c(=O)c2O[C@@H]2O[C@H](CO)[C@@H](O)[C@H](O)[C@H]2O)ccc1O` [isorhamnetin-3-O-β-D-glucoside], the “Percentage of mitochondrial membrane potential depolarization” value was 30.05 ± 1.07 % in the assay on NMuMG cells and 16 ± 2.97 % in the assay with BNL CL.2 cells.
